In patent US20150209263A1, “Method and Compositions for Oral Hygiene” (Imrex, Inc., priority 2003, published 2015):
Entries after “also recorded” stand apart in the source; their conditions may differ.

Test system: cats with recalcitrant stomatitis
Test: Treatment of cats with recalcitrant stomatitis (case reports)
Type: in vivo
Conditions: single cat case reports
Method: Several cats experiencing recalcitrant stomatitis were treated using oral hygiene composition of the present invention further comprising emilgase. All compositions comprised 0.05% emilgase. All treatments were 5 mL/500 mL water (10 mL/L rate). If additional water was required after the 500 mL was consumed, plain water was offered. Any unconsumed solution was discarded after 24 hours and fresh solution was mixed.

SMILES	response of stomatitis to treatment
CC[C@H]1OC(=O)[C@H](C)[C@@H](O[C@H]2C[C@@](C)(OC)[C@@H](O)[C@H](C)O2)[C@H](C)[C@@H](O[C@@H]2O[C@H](C)C[C@H](N(C)C)[C@H]2O)[C@](C)(O)C[C@@H](C)CN(C)[C@H](C)[C@@H](O)[C@]1(C)O [Zithromax]	temporary responses; also recorded: did not respond
CN1CCN(c2c(F)cc3c(=O)c(C(=O)O)cn4c3c2OCN4C)CC1 [Zeniquin]	responded well
